Measurements published in patent publication US20110190365A1, “Insecticidal 4-phenyl-1H-pyrazoles” (Bayer Crop Science AG, priority 2008, published 2011).
Read-outs that look alike come from different tables or passages of the source.

Columns and labels:
[1] = test system: larvae of the mustard beetle (Phaedon cochleariae); assay: Phaedon cochleariae test (PHAECO spray treatment); assay type: in vivo; conditions: application rate 500 g/ha, Chinese cabbage leaf discs sprayed, after 7 days
Description: Phaedon cochleariae Test (PHAECO Spray Treatment)
(§1) Solvent: 78.0 parts by weight of acetone • • 1.5 parts by weight of dimethylformamide Emulsifier: 0.5 part by weight of alkylaryl polyglycol ether
(§2) To produce a suitable preparation of active compound, 1 part by weight of active compound is mixed with the stated amounts of solvent and emulsifier, and the concentrate is diluted with emulsifier-containing water to the desired concentration.
Discs of Chinese cabbage (Brassica pekinensis) are sprayed with an active compound preparation of the desired concentration and, after drying, populated with larvae of the mustard beetle (Phaedon cochleariae).
After 7 days, the effect in % is determined. 100% means that all beetle larvae have been killed; 0% means that none of the beetle larvae have been killed.

[2] = test system: green peach aphid (Myzus persicae); assay: Myzus persicae test (MYZUPE spray treatment); assay type: in vivo; conditions: application rate 500 g/ha, Chinese cabbage leaf discs sprayed, after 6 days
Description: Myzus persicae Test (MYZUPE Spray Treatment)
as §1, §2
Discs of Chinese cabbage (Brassica pekinensis) infected by all stages of the green peach aphid (Myzus persicae) are sprayed with an active compound preparation of the desired concentration.
After 6 days, the effect in % is determined. 100% means that all of the aphids have been killed; 0% means that none of the aphids have been killed.

[3] = log P by HPLC on a reversed-phase column (C18), EEC Directive 79/831 Annex V.A8; assay type: physicochemical
Description: The stated log P values were determined in accordance with EEC Directive 79/831 Annex V.A8 by HPLC (High Performance Liquid Chromatography) using a reversed-phase column (C18).

[4] = test system: caterpillars of the armyworm (Spodoptera frugiperda); assay: Spodoptera frugiperda test (SPODFR spray treatment); assay type: in vivo; conditions: application rate 500 g/ha, maize leaf discs sprayed, after 7 days
Description: Spodoptera frugiperda Test (SPODFR Spray Treatment)
as §1, §2
Discs of maize leaves (Zea mays) are sprayed with an active compound preparation of the desired concentration and, after drying, populated with caterpillars of the armyworm (Spodoptera frugiperda).
After 7 days, the effect in % is determined 100% means that all caterpillars have been killed; 0% means that none of the caterpillars have been killed.

[5] = test system: stage 3 Spodoptera litura larvae; assay: Spodoptera litura larvae test; assay type: in vivo; conditions: active compound concentration 500 ppm, sweet potato leaf dip, after 7 days, mean of two dishes
Description: Spodoptera litura Larvae Test
(§3) Solvent: 3 parts by weight of dimethylformamide Emulsifier: 1 part by weight of polyoxyethylene alkylphenyl ether
To prepare a suitable active compound, 1 part by weight of active compound is mixed with the stated amount of solvent comprising the stated amount of emulsifier, and the mixture is diluted with water to the specified concentration.
Sweet potato leaves are dipped into the sample solution diluted with water to the specified concentration and the leaves treated in this manner are, after the solution adhering to the leaves has dried in air, transferred into a laboratory dish which has a diameter of 9 cm and in which there are 10 stage 3 Spodoptera litura larvae. The dish is then placed in a temperature-controlled room at 25° C., sweet potato leaves are then added to the dish on day two and day four and the number of dead insects is determined after 7 days and used to calculate the insecticidal ratio.
The results are the means of two laboratory dishes per group in this test.

[6] = test system: stage 2 Aulacophora femoralis larvae; assay: Aulacophora femoralis test (spray test); assay type: in vivo; conditions: active compound concentration 500 ppm, cucumber leaf dip, after 7 days
Description: Aulacophora femoralis Test (Spray Test)
as §3
To prepare a suitable active compound formulation, 1 part by weight of the active compound is mixed with the stated amount of solvent comprising the stated amount of emulsifier, and the mixture is diluted with water to a specified concentration.
Cucumber leaves are dipped into a dilute aqueous solution of an active compound at the specified concentration prepared in the same manner as in the test described above, air-dried and transferred into a plastic dish with sterilized black soil. 5 stage 2 Aulacophora femoralis larvae are transferred into this dish. The dish is then placed into a temperature-controlled room at 25° C. After 7 days, the number of dead larvae is counted to calculate the mortality.

[7] = HPLC, reversed-phase C18, mobile phase with formic acid

| SMILES | effect in % (beetle larvae killed) [1] [%] | log P (HCOOH) [3, 7] | effect in % (caterpillars killed) [4] [%] | also measured |
| --- | --- | --- | --- | --- |
| N#Cc1cc(-n2nc(C(F)(F)F)c(-c3cc(Cl)cc(Cl)c3)c2N)ccc1-n1cnc(S)n1 [I-A-Q1-089] | 83 | I-A-Q1-089: log P (HCOOH): 3.53 |  | effect in % (aphids killed) [2]: 90% |
| CSc1cc(-n2nc(C(F)(F)F)c(-c3cc(Cl)cc(Cl)c3)c2N)ccc1C(=O)NCc1ccccn1 [I-A-Q2-409] |  |  | 83 | log P (HCOOH) ([3]; HCOOH): I-A-Q2-409: log P (HCOOH): 3.38 |
| O=C(NCC(F)(F)F)c1ccc(-n2cc(-c3cc(Cl)cc(Cl)c3)c(C(F)(F)F)n2)cc1C(F)(F)F [I-A-Q2-002, 4-[4-(3,5-Dichlorophenyl)-3-trifluoromethylpyrazol-1-yl]-N-(2,2,2-trifluoroethyl)-2-trifluoromethylbenzamide] |  |  |  | kill of the insect larvae [5]: 100%; kill of the insects [6]: 100%; chromatographic logP ([3]; pH 2, read-out: log P (pH 2)): 5.16; chromatographic logP ([3]; pH 7.5, read-out: log P (pH 7.5)): 5.14 |
| N#Cc1cc(-n2nc(C(F)(F)F)c(-c3cc(Cl)cc(Cl)c3)c2N)ccc1-n1cnc(Cl)n1 [I-A-Q1-091] | 100 | I-A-Q1-091: log P (HCOOH): 4.17 | 100 |  |
